Measurements as given in patent US6727268B2, “2-thioxothiazole derivative, method for preparing the same, and pharmaceutical composition containing the same” (CJ Corp., priority 2002, dated 2004).

What was measured:
[1] = molecular target: T1, COX-1 (Homo sapiens, UniProt P23219); experiment: Assay for the COX-1 inhibitory activity using U-937 (PGE2 inhibition); type: cell-based; conditions: 1 μM test compound; U-937 human lymphoma cells; arachidonic acid substrate; PGE2 vs DMSO control; read-out: Cyclooxygenase (COX) Inhibition (%) COX-1 (1 μM)
T1 construct: host or cells: U-937 human lymphoma cells
Protocol: The collected cells were diluted with HBSS (×1, Hank's balanced salt solution) to a concentration of 1×10^6 cells/ml. 1 ml of the dilute cell solution was placed into each well of 12-well plates. 5 μl of 1 μM solution of a test compound in DMSO and 5 μl of DMSO as a control were added to the wells. The wells were incubated in CO2 incubator at 37° C. for 15 minutes. Separately, 10 mM stock solution of arachidonic acid in ethanol was diluted ten times in ethanol to prepare 1 mM solution of arachidonic acid. Arachidonic acid acts as a substrate. 10 μl of the 1 mM solution of arachidonic acid was added to each well and incubated at CO2 incubator at 37° C. for 30 minutes. The cell solution of each well was placed in a centrifuge test tube and centrifuged at 10,000 rpm at 4° C. for 5 minutes. The concentration of PGE2 in the collected cells and the supernatant was quantified by means of a monoclonal kit (Cayman Chemicals). The percentages of PGE2 inhibition in a group of the test compound-treated cells in relation to a group of the DMSO-treated cells were calculated. Based on the calculated values, the COX-1 inhibitory activities were evaluated.
(§1) The percentages of the COX inhibition were calculated according to the following equation: [formula]

[2] = molecular target: T2, COX-2 (Mus musculus, UniProt Q05769); experiment: Assay for the COX-2 inhibitory activity using RAW 264.7 cell line (PGE2, EIA); type: cell-based; conditions: RAW264.7, 10 nM test compound, RAW 264.7 cells, aspirin pre-treated, interferon + LPS 18 hours, read-out: Cyclooxygenase (COX) Inhibition (%) COX-2 (10 nM)
T2 construct: host or cells: RAW 264.7 cells, pre-treated with aspirin and induced with interferon and LPS
T2 sequence (Q05769 18-604): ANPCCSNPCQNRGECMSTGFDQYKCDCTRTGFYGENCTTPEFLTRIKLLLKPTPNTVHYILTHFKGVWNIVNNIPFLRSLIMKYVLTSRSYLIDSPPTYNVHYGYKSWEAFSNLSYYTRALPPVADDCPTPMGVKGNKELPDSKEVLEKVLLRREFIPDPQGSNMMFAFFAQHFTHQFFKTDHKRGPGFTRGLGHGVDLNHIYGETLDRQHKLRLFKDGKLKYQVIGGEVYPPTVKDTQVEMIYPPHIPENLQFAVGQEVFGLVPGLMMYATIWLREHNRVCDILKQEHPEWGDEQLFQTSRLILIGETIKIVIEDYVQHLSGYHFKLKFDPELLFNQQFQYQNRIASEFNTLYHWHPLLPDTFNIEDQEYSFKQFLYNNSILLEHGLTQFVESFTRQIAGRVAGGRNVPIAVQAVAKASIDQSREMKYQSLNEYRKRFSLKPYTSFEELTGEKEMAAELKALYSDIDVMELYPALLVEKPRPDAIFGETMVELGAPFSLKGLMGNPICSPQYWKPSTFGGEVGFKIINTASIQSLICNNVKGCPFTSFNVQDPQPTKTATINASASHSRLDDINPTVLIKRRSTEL
Protocol: Each well was treated with 250 μM of aspirin and incubated at 37° C. for 2 hours. After the culture media were replaced with new culture media, the new culture media were treated with a test compound (10 nM) and incubated for 30 minutes. Then, each well was treated with interferon ? (100 units/ml) and lipopolysaccharide (LPS, 100 ng/ml) and incubated for 18 hours. The culture media were transferred to other test tubes. The concentration of PGE2 was quantified by means of the EIA kit (Cayman Chemicals).
as §1

T1 sequence (P23219 24-599): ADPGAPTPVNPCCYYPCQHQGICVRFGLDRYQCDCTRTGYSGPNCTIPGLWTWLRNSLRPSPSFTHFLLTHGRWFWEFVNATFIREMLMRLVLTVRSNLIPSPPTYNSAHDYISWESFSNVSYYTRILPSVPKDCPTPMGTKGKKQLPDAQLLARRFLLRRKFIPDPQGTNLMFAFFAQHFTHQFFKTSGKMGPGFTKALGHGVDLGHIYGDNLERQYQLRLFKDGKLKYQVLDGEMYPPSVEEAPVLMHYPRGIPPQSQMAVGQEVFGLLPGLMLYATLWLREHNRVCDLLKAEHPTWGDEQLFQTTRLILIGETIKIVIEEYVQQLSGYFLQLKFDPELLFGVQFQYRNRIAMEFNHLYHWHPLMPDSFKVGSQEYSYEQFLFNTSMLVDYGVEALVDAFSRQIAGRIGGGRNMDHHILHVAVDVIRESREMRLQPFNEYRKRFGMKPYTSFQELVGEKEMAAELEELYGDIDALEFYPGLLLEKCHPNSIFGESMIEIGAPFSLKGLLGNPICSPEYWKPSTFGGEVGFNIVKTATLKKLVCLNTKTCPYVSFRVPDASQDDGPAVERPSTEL

SMILES | inhibition at 1 µM [1] [%] | inhibition at 0.01 µM [2] [%] | melting point [°C]
Cc1sc(=S)n(-c2ccc(S(N)(=O)=O)cc2)c1-c1ccccc1 [Example 2, 4-(5-methyl-4-phenyl-2-thioxothiazole-3-yl)benzenesulfonamide] | 35.2 | 66.5 | 262
CS(=O)(=O)c1ccc(-c2csc(=S)n2-c2ccc(S(N)(=O)=O)cc2)cc1 [Example 3, 4-[4-(4-methanesulfonylphenyl)-2-thioxothiazole-3-yl]benzenesulfo namide] | 30.7 | 65.8 | 288
Cc1onc(-c2ccccc2)c1-c1ccc(S(N)(=O)=O)cc1 [Reference (Valdecoxib), Valdecoxib, reference compound] | 29.5 | – | –

The remaining lines, values ahead:

inhibition at 1 µM [1] [%] | inhibition at 0.01 µM [2] [%] | melting point [°C] | SMILES
28.5 | 60.9 | 235 | NS(=O)(=O)c1ccc(-n2c(-c3ccccc3)csc2=S)cc1 [Example 1, 4-(4-phenyl-2-thioxothiazole-3-yl)benzenesulfonamide]
31.1 | 72.7 | 271 | NS(=O)(=O)c1ccc(-n2c(-c3ccc(F)cc3)csc2=S)cc1 [Example 4, 4-[4-(4-fluorophenyl)-2-thioxothiazole-3-yl]benzenesulfonamide]
15.8 | 75 | 284 | NS(=O)(=O)c1ccc(-n2c(-c3cccc([N+](=O)[O-])c3)csc2=S)cc1 [Example 5, 4-[4-(3-nitrophenyl)-2-thioxothiazole-3-yl]benzenesulfonamide]
38.5 | 73.5 | 242 | NS(=O)(=O)c1ccc(-n2c(-c3ccc(Cl)cc3)csc2=S)cc1 [Example 6, 4-[4-(4-chlorophenyl)-2-thioxothiazole-3-yl]benzenesulfonamide]
